Source: ChEMBL document CHEMBL1150977, “A quantitative analysis of kinase inhibitor selectivity” (Nat Biotechnol, 2008)

How the values were obtained:
[1] = biological target: Serine/threonine-protein kinase 10 (Homo sapiens, UniProt O94804)
[2] = biological target: Tyrosine-protein kinase ABL1 (Homo sapiens, UniProt P00519, H396P)
[3] = biological target: Serine/threonine-protein kinase Nek7 (Homo sapiens, UniProt Q8TDX7)
Ephrin type-A receptor 6 = biological target: T1, Ephrin type-A receptor 6 (Homo sapiens, UniProt Q9UF33)
T1 sequence (Q9UF33 whole entry): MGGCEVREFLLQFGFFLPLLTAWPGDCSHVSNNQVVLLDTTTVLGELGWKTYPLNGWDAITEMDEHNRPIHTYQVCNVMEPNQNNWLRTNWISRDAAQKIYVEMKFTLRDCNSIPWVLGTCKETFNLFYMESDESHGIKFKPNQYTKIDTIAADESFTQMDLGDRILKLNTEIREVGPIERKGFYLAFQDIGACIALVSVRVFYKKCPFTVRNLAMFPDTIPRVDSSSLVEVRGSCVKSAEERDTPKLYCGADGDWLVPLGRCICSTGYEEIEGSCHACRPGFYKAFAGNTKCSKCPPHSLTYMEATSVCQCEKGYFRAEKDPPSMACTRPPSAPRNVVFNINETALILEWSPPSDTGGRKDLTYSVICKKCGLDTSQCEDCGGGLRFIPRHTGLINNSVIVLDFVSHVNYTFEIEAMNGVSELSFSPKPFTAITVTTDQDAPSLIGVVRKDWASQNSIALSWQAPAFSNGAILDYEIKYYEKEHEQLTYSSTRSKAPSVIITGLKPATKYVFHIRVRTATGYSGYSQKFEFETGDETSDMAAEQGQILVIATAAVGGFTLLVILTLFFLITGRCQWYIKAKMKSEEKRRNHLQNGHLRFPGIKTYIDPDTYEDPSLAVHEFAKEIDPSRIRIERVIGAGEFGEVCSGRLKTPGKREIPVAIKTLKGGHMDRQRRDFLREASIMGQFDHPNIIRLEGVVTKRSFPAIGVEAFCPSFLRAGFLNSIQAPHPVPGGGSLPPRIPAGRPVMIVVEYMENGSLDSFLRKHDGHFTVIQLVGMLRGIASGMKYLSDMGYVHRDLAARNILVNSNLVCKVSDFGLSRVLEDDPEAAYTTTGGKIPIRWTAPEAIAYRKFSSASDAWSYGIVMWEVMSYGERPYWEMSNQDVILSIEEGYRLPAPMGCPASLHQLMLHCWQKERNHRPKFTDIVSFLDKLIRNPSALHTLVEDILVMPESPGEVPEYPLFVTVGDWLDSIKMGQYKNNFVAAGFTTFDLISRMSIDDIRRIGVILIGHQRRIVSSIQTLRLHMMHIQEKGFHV

Ephrin type-A receptor 8 = biological target: T2, Ephrin type-A receptor 8 (Homo sapiens, UniProt P29322)
T2 sequence (P29322 whole entry): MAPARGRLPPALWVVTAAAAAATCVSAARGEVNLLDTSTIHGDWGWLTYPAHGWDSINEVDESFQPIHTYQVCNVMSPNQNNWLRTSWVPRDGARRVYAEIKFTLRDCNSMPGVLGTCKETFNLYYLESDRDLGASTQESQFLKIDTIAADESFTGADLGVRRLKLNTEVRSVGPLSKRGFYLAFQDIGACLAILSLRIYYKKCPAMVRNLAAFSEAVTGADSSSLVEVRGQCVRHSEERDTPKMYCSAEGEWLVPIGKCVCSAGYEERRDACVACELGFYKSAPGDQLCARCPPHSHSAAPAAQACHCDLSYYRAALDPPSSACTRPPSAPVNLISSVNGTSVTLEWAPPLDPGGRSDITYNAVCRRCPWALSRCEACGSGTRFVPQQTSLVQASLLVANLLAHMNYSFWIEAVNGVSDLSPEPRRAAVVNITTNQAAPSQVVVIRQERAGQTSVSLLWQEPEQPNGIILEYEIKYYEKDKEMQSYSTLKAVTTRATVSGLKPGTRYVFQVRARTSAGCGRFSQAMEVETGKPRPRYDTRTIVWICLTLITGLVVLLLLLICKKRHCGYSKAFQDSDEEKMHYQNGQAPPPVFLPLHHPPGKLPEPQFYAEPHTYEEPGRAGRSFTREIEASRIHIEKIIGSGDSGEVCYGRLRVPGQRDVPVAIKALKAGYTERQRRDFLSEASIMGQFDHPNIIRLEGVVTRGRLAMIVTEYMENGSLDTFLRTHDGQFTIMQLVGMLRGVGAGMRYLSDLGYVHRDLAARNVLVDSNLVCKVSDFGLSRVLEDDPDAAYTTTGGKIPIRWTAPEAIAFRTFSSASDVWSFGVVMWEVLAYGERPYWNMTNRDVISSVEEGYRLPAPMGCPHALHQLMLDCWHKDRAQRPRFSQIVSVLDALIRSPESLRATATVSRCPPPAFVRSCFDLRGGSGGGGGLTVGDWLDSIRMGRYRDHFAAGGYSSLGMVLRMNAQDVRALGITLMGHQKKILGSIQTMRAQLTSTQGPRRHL

[4] = biological target: Mitogen-activated protein kinase kinase kinase 20 (Homo sapiens, UniProt Q9NYL2)
Mitogen-activated protein kinase kinase kinase 20, sequence (Q9NYL2 whole entry): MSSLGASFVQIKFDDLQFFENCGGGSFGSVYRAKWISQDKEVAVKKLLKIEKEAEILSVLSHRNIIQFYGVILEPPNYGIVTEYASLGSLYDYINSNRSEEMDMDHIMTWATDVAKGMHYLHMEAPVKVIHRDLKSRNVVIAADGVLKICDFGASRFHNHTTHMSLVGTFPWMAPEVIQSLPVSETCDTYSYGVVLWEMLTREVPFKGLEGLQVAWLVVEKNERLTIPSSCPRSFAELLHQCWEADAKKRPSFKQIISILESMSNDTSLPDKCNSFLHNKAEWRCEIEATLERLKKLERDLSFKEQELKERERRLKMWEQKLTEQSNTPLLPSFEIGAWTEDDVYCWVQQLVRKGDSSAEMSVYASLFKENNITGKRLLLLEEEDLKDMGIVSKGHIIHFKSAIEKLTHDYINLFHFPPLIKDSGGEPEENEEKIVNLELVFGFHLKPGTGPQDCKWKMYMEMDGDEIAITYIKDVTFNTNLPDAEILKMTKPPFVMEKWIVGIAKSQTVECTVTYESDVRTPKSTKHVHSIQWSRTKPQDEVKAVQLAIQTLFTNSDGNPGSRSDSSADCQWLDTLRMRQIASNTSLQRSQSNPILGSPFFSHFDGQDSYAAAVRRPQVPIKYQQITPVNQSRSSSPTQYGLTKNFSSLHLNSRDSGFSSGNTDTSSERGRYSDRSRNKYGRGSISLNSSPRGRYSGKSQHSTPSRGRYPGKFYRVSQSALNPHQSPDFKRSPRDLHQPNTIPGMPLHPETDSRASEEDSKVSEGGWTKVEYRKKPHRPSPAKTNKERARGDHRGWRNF

[5] = biological target: T3, Serine/threonine-protein kinase DCLK3 (Homo sapiens, UniProt Q9C098)
T3 sequence (Q9C098 whole entry): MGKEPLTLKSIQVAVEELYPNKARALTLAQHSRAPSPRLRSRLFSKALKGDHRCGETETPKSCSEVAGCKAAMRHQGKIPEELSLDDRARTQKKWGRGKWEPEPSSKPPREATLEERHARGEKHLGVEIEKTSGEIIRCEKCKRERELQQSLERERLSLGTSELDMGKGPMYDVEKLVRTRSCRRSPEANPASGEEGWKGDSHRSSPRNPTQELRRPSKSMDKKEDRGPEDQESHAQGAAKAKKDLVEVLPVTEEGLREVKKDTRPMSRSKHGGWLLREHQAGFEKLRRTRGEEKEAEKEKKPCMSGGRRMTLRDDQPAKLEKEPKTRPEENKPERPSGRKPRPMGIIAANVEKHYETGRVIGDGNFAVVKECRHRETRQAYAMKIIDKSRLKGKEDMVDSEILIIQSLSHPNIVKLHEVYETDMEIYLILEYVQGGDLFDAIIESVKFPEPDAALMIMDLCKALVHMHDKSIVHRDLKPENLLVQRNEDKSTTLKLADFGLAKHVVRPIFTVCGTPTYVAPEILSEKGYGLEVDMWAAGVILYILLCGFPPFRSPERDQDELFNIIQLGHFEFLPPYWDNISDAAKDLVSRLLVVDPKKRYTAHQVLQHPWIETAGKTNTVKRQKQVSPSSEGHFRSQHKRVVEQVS

Myosin-IIIa = Myosin-IIIa (Homo sapiens, UniProt Q8NEV4)
Myosin-IIIa, sequence (Q8NEV4 whole entry): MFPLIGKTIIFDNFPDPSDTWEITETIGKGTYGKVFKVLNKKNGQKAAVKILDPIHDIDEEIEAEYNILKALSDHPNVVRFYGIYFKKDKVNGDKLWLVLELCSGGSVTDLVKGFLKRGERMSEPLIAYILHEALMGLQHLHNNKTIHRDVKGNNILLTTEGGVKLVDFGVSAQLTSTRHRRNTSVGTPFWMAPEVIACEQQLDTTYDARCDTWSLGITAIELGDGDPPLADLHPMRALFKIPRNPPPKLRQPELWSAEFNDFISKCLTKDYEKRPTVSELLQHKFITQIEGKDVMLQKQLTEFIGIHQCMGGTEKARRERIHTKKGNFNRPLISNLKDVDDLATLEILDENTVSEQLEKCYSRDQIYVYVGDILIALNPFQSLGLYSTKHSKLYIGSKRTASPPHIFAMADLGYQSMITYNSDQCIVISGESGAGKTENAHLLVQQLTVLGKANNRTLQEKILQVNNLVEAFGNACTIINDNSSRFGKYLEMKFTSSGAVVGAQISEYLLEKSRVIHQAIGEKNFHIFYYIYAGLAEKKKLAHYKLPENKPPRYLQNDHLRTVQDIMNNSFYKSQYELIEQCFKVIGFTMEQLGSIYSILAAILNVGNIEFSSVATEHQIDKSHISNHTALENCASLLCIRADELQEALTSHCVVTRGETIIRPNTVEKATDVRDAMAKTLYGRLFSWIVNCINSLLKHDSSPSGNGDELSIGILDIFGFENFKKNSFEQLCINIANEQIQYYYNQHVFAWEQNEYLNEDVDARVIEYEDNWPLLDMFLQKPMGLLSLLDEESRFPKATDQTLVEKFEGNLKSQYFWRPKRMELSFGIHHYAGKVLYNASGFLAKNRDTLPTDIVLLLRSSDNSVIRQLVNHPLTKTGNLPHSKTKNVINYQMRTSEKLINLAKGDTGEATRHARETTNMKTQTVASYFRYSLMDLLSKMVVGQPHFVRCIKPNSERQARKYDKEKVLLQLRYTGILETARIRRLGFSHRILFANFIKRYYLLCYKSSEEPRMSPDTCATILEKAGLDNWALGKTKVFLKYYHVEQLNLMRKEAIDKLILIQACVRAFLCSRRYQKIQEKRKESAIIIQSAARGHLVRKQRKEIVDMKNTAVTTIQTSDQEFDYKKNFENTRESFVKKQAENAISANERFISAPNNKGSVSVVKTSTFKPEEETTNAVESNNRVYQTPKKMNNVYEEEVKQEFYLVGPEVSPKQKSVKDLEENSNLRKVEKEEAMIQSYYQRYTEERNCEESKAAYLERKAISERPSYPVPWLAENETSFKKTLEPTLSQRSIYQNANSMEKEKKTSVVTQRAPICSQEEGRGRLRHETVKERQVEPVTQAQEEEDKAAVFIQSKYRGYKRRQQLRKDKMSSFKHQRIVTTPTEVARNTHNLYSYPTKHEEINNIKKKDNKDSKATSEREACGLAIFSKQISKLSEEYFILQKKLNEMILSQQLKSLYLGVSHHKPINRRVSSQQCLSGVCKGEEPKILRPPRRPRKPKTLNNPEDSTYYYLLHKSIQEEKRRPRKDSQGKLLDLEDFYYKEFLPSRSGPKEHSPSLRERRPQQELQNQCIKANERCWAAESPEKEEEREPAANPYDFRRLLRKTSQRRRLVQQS

[6] = biological target: Mitogen-activated protein kinase 11 (Homo sapiens, UniProt Q15759)
Mitogen-activated protein kinase 11, sequence (Q15759 whole entry): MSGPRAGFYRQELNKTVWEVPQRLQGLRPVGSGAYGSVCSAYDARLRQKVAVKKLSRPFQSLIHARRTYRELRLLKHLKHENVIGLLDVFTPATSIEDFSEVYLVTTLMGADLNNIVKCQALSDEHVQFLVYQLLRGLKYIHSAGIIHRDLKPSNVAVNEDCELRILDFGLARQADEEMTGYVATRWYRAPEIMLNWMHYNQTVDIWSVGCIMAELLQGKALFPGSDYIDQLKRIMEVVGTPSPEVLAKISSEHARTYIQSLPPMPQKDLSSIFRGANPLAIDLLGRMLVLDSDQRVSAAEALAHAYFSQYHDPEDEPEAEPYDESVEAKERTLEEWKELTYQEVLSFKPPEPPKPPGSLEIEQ

Serine/threonine-protein kinase Nek7, sequence (Q8TDX7 whole entry): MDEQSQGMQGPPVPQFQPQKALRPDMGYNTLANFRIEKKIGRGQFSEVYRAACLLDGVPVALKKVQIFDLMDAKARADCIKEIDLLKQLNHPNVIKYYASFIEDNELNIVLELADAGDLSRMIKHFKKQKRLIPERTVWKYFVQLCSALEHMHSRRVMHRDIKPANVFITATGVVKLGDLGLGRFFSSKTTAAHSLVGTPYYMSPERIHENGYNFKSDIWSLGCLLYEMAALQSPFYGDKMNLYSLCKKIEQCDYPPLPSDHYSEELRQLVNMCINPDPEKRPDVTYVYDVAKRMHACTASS
Serine/threonine-protein kinase 10, sequence (O94804 whole entry): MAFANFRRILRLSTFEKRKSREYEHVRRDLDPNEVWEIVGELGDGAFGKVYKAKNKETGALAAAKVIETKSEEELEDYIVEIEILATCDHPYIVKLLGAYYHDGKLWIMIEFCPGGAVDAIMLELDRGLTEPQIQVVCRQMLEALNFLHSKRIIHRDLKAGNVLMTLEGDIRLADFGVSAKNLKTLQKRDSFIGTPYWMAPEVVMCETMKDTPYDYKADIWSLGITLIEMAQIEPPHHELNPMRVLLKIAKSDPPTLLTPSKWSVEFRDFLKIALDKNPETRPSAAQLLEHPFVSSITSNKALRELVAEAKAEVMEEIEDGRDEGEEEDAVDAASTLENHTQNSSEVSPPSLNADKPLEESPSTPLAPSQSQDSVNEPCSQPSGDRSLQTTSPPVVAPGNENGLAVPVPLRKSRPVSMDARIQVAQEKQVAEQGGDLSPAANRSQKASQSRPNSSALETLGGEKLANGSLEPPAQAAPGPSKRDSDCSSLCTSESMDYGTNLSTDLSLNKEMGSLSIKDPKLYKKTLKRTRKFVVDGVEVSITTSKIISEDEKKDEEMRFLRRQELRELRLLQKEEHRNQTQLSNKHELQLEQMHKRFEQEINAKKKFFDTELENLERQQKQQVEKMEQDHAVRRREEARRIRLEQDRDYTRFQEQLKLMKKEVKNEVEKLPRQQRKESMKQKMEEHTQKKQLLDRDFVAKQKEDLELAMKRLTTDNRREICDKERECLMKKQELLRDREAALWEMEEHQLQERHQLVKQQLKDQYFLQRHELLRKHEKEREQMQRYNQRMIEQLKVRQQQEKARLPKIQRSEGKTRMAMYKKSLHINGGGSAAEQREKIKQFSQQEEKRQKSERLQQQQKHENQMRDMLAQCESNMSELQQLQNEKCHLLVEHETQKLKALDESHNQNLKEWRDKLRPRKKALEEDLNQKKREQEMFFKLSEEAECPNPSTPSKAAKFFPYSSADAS

COCC(=O)NC/C=C/c1ccc2ncnc(Nc3ccc(Oc4ccc(C)nc4)c(C)c3)c2c1 [CP-724714]
Kd [1]: > 10 µM
Kd [2]: > 10 µM
Kd [3]: > 10 µM
Kd (Ephrin type-A receptor 6): > 10 µM
Kd (Ephrin type-A receptor 8): > 10 µM
Kd [4]: > 10 µM
Kd [5]: > 10 µM
Kd (Myosin-IIIa): > 10 µM
Kd [6]: > 10 µM

Nc1nc(Nc2ccc(S(N)(=O)=O)cc2)nn1C(=O)c1c(F)cccc1F [JNJ-7706621]
Kd [3]: > 10 µM
Kd (Ephrin type-A receptor 6): > 10 µM
Kd (Ephrin type-A receptor 8): > 10 µM
Kd [4]: > 10 µM
Kd (Myosin-IIIa): > 10 µM
Kd [6]: > 10 µM

CCOc1cc2ncc(C#N)c(Nc3ccc(F)c(Cl)c3)c2cc1NC(=O)/C=C/CN(C)C [PELITINIB]
Kd [3]: > 10 µM
Kd [4]: 1.2 µM
Kd [5]: 4.9 µM
Kd (Myosin-IIIa): > 10 µM
Kd [6]: > 10 µM

Oc1ccc(-c2nc(-c3ccncc3)c(-c3ccc(F)cc3)[nH]2)cc1 [SB-202190]
Kd [1]: > 10 µM
Kd [2]: > 10 µM
Kd [3]: > 10 µM
Kd (Ephrin type-A receptor 6): 2.2 µM
Kd (Ephrin type-A receptor 8): > 10 µM
Kd [4]: > 10 µM
Kd [5]: > 10 µM
Kd (Myosin-IIIa): > 10 µM

NC(=O)c1ccc(-c2nc(-c3ccc4c(c3)OCO4)c(-c3ccccn3)[nH]2)cc1 [SB-431542]
Kd [1]: > 10 µM
Kd [2]: > 10 µM
Kd [3]: > 10 µM
Kd (Ephrin type-A receptor 6): > 10 µM
Kd (Ephrin type-A receptor 8): > 10 µM
Kd [4]: > 10 µM
Kd [5]: > 10 µM
Kd (Myosin-IIIa): > 10 µM
Kd [6]: > 10 µM
